From US20240116985A1, “STAPLED PEPTIDES AND METHODS THEREOF” (priority 2020, published 2024) come the findings set out here.

The target of assay [1] is T1, full-length beta-Catenin (Uniprot ID P35222) (Homo sapiens, UniProt P35222).
T1 construct: 10 nM full-length beta-Catenin (Uniprot ID P35222)
T1 sequence (P35222 1-781): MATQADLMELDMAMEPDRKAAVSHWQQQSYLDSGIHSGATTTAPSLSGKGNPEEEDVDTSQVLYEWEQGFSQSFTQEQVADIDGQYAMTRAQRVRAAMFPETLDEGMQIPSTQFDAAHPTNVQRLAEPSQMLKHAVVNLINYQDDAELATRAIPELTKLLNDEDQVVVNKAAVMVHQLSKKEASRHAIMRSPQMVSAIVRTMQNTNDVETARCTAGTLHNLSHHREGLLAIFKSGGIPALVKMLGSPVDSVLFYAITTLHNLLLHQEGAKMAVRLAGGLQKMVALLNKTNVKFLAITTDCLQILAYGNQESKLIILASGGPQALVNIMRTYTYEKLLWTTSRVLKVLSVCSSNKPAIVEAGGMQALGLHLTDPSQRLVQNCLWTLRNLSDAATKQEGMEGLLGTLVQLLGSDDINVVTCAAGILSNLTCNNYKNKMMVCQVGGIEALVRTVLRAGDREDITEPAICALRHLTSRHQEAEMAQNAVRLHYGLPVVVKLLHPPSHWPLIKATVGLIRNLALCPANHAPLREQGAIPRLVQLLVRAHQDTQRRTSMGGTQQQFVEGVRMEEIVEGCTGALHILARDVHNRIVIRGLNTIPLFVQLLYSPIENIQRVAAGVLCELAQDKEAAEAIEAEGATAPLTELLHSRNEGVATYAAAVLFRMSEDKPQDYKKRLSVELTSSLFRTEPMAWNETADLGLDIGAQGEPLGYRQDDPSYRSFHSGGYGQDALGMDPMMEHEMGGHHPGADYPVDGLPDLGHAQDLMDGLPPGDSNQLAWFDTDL
In words: Fluorescence polarization IC50 (beta-catenin / 5FAM-TCF4 10-53 competition). Type of assay: binding. The conditions noted are these: fluorescence polarization; read-out: beta-Catenin FP IC50. (In fluorescence polarisation assays a small probe gives low polarisation when free and higher when bound to something large.)

The target in assay [2] is T2, beta-catenin/TCF4 engagement (Homo sapiens, UniProt P35222).
T2 construct: expressed in transfected cells; host or cells: HEK293
T2 sequence (P35222 1-781): T1 sequence (P35222 1-781)
The assay is described as follows: Nano-BRET target engagement assay (B-cat-Halo & TCF4-Luc in HEK293 cells). Type of assay: cell-based. The conditions noted are these: absolute IC50; read-out: NanoBRET Abs IC50.

As usually defined, the IC50 is the concentration needed to halve the response being measured. For `CC(=O)N1CCC[C@]12CC=CCCCC1(CCCC=CCCCCCC[C@@](C)(C(=O)N[C@@H](Cc3ccccc3)C(=O)N[C@@H](Cc3csc4ccccc34)C(=O)N[C@@H](CCC(N)=O)C(N)=O)NC(=O)[C@H](CCO)NC(=O)[C@H](Cc3ccccc3)NC(=O)[C@H](C)NC(=O)[C@H](C)NC(=O)[C@H](CCC(=O)O)NC(=O)[C@H](CC(=O)O)NC1=O)NC(=O)[C@H](CCO)NC(=O)[C@H](CC(=O)O)NC2=O` (stereo partly drawn) [I-1548, Ac-PL3-Asp-Hse-B5-Asp-Glu-Ala-Ala-Phe-Hse-S8-Phe-BztA-Gln-NH2], the IC50 is 28 nM in assay [1] and greater than 20000 nM in assay [2].

Regarding `CC(=O)N1CCC[C@]12CC=CCCCC1(CCCC=CCCCCCC[C@@](C)(C(=O)N[C@@H](Cc3ccccc3)C(=O)N[C@@H](Cc3csc4ccccc34)C(=O)N[C@@H](CCC(N)=O)C(N)=O)NC(=O)[C@H](CCC(N)=O)NC(=O)[C@H](Cc3ccccc3)NC(=O)[C@H](C)NC(=O)[C@H](C)NC(=O)[C@H](CCC(=O)O)NC(=O)[C@H](CC(=O)O)NC1=O)NC(=O)[C@H](Cc1ccccc1)NC(=O)[C@H](CC(=O)O)NC2=O` (stereo partly drawn) [I-1549, Ac-PL3-Asp-Phe-B5-Asp-Glu-Ala-Ala-Phe-Gln-S8-Phe-BztA-Gln-NH2], the IC50 in assay [1] was 13 nM; in assay [2] it was 11600 nM.

As to `CC(=O)N1CCC[C@]12CC=CCCCC1(CCCC=CCCCCCC[C@@](C)(C(=O)N[C@@H](Cc3ccccc3)C(=O)N[C@@H](Cc3csc4ccccc34)C(=O)N[C@@H](CCC(N)=O)C(N)=O)NC(=O)[C@H](CC(C)C)NC(=O)[C@H](Cc3ccccc3)NC(=O)[C@H](C)NC(=O)[C@H](C)NC(=O)[C@H](CCC(=O)O)NC(=O)[C@H](CC(=O)O)NC1=O)NC(=O)[C@H](Cc1ccccc1)NC(=O)[C@H](CC(=O)O)NC2=O` (stereo partly drawn) [I-1550, Ac-PL3-Asp-Phe-B5-Asp-Glu-Ala-Ala-Phe-Leu-S8-Phe-BztA-Gln-NH2], the IC50 in assay [1] was found to be 22 nM; in assay [2] it was 15300 nM.

On to `CC(=O)N1CCC[C@]12CC=CCCCC1(CCCC=CCCCCCC[C@@](C)(C(=O)N[C@@H](Cc3ccccc3)C(=O)N[C@@H](Cc3csc4ccccc34)C(=O)N[C@@H](CCC(N)=O)C(N)=O)NC(=O)[C@H](CCO)NC(=O)[C@H](Cc3ccccc3)NC(=O)[C@H](C)NC(=O)[C@H](C)NC(=O)[C@H](CCC(=O)O)NC(=O)[C@H](CC(=O)O)NC1=O)NC(=O)[C@H](Cc1ccccc1)NC(=O)[C@H](CC(=O)O)NC2=O` (stereo partly drawn) [I-1551, Ac-PL3-Asp-Phe-B5-Asp-Glu-Ala-Ala-Phe-Hse-S8-Phe-BztA-Gln-NH2], for which the results for the IC50 in assay [1] and in assay [2] were 16 nM and 19800 nM, respectively.

In the case of `CC(=O)N1CCC[C@]12CC=CCCCC1(CCCC=CCCCCCC[C@@](C)(C(=O)N[C@@H](Cc3ccccc3)C(=O)N[C@@H](Cc3csc4ccccc34)C(=O)N[C@@H](CCC(N)=O)C(N)=O)NC(=O)[C@H](CCC(N)=O)NC(=O)[C@H](Cc3ccccc3)NC(=O)[C@H](C)NC(=O)[C@H](C)NC(=O)[C@H](CCC(=O)O)NC(=O)[C@H](CC(=O)O)NC1=O)NC(=O)[C@H](CCCCN)NC(=O)[C@H](CC(=O)O)NC2=O` (stereo partly drawn) [I-1552, Ac-PL3-Asp-Lys-B5-Asp-Glu-Ala-Ala-Phe-Gln-S8-Phe-BztA-Gln-NH2], the IC50 is 56 nM in assay [1] and greater than 20000 nM in assay [2].

On to `CC(=O)N1CCC[C@]12CC=CCCCC1(CCCC=CCCCCCC[C@@](C)(C(=O)N[C@@H](Cc3ccccc3)C(=O)N[C@@H](Cc3csc4ccccc34)C(=O)N[C@@H](CCC(N)=O)C(N)=O)NC(=O)[C@H](CC(C)C)NC(=O)[C@H](Cc3ccccc3)NC(=O)[C@H](C)NC(=O)[C@H](C)NC(=O)[C@H](CCC(=O)O)NC(=O)[C@H](CC(=O)O)NC1=O)NC(=O)[C@H](CCCCN)NC(=O)[C@H](CC(=O)O)NC2=O` (stereo partly drawn) [I-1553, Ac-PL3-Asp-Lys-B5-Asp-Glu-Ala-Ala-Phe-Leu-S8-Phe-BztA-Gln-NH2], for which the half-maximal inhibitory concentration (IC50) in assay [1] was 133 nM; in assay [2], greater than 20000 nM.

On to `CC(=O)N1CCC[C@]12CC=CCCCC1(CCCC=CCCCCCC[C@@](C)(C(=O)N[C@@H](Cc3ccccc3)C(=O)N[C@@H](Cc3csc4ccccc34)C(=O)N[C@@H](CCC(N)=O)C(N)=O)NC(=O)[C@H](CCO)NC(=O)[C@H](Cc3ccccc3)NC(=O)[C@H](C)NC(=O)[C@H](C)NC(=O)[C@H](CCC(=O)O)NC(=O)[C@H](CC(=O)O)NC1=O)NC(=O)[C@H](CCCCN)NC(=O)[C@H](CC(=O)O)NC2=O` (stereo partly drawn) [I-1554, Ac-PL3-Asp-Lys-B5-Asp-Glu-Ala-Ala-Phe-Hse-S8-Phe-BztA-Gln-NH2], for which the IC50 in assay [1] was 63 nM; in assay [2], greater than 20000 nM.

Regarding `CC(=O)N1CCC[C@]12CC=CCCCC1(CCCC=CCCCOC(=O)N3CC[C@@](C(=O)N[C@@H](Cc4ccsc4)C(=O)N[C@@H](Cc4csc5ccccc45)C(=O)N[C@@H](CCC(N)=O)C(N)=O)(C3)NC(=O)[C@H](CC(N)=O)NC(=O)[C@H](Cc3ccccc3)NC(=O)[C@H](C)NC(=O)[C@H](C)NC(=O)[C@H](CC(N)=O)NC(=O)[C@H](CC(N)=O)NC1=O)NC(=O)[C@H](CC(C)(C)C)NC(=O)[C@H](CC(=O)O)NC2=O` (stereo partly drawn) [I-1555, Ac-PL3-Asp-Npg-B5-Asn-Asn-Ala-Ala-Phe-Asn-PyrS2-3Thi-BztA-Gln-NH2], the IC50 in assay [1] turned out to be 180 nM; in assay [2] it was 29300 nM.

For the compound `CC(=O)N1CCC[C@]12CC=CCCCC1(CCCC=CCCCOC(=O)N3CC[C@@](C(=O)N[C@@H](Cc4ccsc4)C(=O)N[C@@H](Cc4csc5ccccc45)C(=O)N[C@@H](CCC(N)=O)C(N)=O)(C3)NC(=O)[C@H](CC(N)=O)NC(=O)[C@H](Cc3ccccc3)NC(=O)[C@H](C)NC(=O)[C@H](C)NC(=O)[C@H](CC(N)=O)NC(=O)[C@H](CC(N)=O)NC1=O)NC(=O)[C@H](C)NC(=O)[C@H](CC(=O)O)NC2=O` (stereo partly drawn) [I-1556, Ac-PL3-Asp-Ala-B5-Asn-Asn-Ala-Ala-Phe-Asn-PyrS2-3Thi-BztA-Gln-NH2], the results for the IC50 in assay [1] and in assay [2] were 385 nM and greater than 20000 nM, respectively.

Take `CC(=O)N1CCC[C@]12CC=CCCCC1(CCCC=CCCCOC(=O)N3CC[C@@](C(=O)N[C@@H](Cc4ccsc4)C(=O)N[C@@H](Cc4csc5ccccc45)C(=O)N[C@@H](CCC(N)=O)C(N)=O)(C3)NC(=O)[C@H](CC(C)C)NC(=O)[C@H](Cc3ccccc3)NC(=O)[C@H](C)NC(=O)[C@H](C)NC(=O)[C@H](CC(N)=O)NC(=O)[C@H](CC(N)=O)NC1=O)NC(=O)[C@H](CC(C)(C)C)NC(=O)[C@H](CC(=O)O)NC2=O` (stereo partly drawn) [I-1557, Ac-PL3-Asp-Npg-B5-Asn-Asn-Ala-Ala-Phe-Leu-PyrS2-3Thi-BztA-Gln-NH2]: the IC50 in assay [1] is 342 nM; in assay [2], greater than 20000 nM.

As to `CC(=O)N1CCC[C@]12CC=CCCCC1(CCCC=CCCCOC(=O)N3CC[C@@](C(=O)N[C@@H](Cc4ccsc4)C(=O)N[C@@H](Cc4csc5ccccc45)C(=O)N[C@@H](CCC(N)=O)C(N)=O)(C3)NC(=O)[C@H](CC(N)=O)NC(=O)[C@H](Cc3ccccc3)NC(=O)[C@H](C)NC(=O)[C@H](C)NC(=O)[C@H]([C@@H](C)O)NC(=O)[C@H](CC(N)=O)NC1=O)NC(=O)[C@H](CC(C)(C)C)NC(=O)[C@H](CC(=O)O)NC2=O` (stereo partly drawn) [I-1564, Ac-PL3-Asp-Npg-B5-Asn-Thr-Ala-Ala-Phe-Asn-PyrS2-3Thi-BztA-Gln-NH2], the IC50 in assay [1] was 122 nM; in assay [2] it was greater than 20000 nM.

Take `CC(=O)N1CCC[C@]12CC=CCCCC1(CCCC=CCCCOC(=O)N3CC[C@@](C(=O)N[C@@H](Cc4ccsc4)C(=O)N[C@@H](Cc4csc5ccccc45)C(=O)N[C@@H](CCC(N)=O)C(N)=O)(C3)NC(=O)[C@H](CC(N)=O)NC(=O)[C@H](Cc3ccccc3)NC(=O)[C@H](C)NC(=O)[C@H](C)NC(=O)[C@H]([C@@H](C)O)NC(=O)[C@H](CC(N)=O)NC1=O)NC(=O)[C@H](CC(C)(C)C)NC(=O)[C@H](CC(=O)O)NC2=O` (stereo partly drawn) [I-1565, Ac-PL3-Asp-Npg-B5-Asn-Thr-Ala-Ala-Phe-Asn-PyrS2-3Thi-BztA-Gln-NH2]: the IC50 in assay [1] is 148 nM; in assay [2], greater than 20000 nM.

For `CC(=O)N1CCC[C@]12CC=CCCCC1(CCCC=CCCCOC(=O)N3CC[C@@](C(=O)N[C@@H](Cc4ccsc4)C(=O)N[C@@H](Cc4csc5ccccc45)C(=O)N[C@@H](CCC(N)=O)C(N)=O)(C3)NC(=O)[C@H](CC(N)=O)NC(=O)[C@H](Cc3ccccc3)NC(=O)[C@H](C)NC(=O)[C@H](C)NC(=O)[C@H](CCC(N)=O)NC(=O)[C@H](CC(N)=O)NC1=O)NC(=O)[C@H](CC(C)(C)C)NC(=O)[C@H](CC(=O)O)NC2=O` (stereo partly drawn) [I-1566, Ac-PL3-Asp-Npg-B5-Asn-Gln-Ala-Ala-Phe-Asn-PyrS2-3Thi-BztA-Gln-NH2], the IC50 in assay [1] was 231 nM; in assay [2], greater than 20000 nM.

Take `CC(=O)N1CCC[C@]12CC=CCCCC1(CCCC=CCCCOC(=O)N3CC[C@@](C(=O)N[C@@H](Cc4ccsc4)C(=O)N[C@@H](Cc4csc5ccccc45)C(=O)N[C@@H](CCC(N)=O)C(N)=O)(C3)NC(=O)[C@H](CC(N)=O)NC(=O)[C@H](Cc3ccccc3)NC(=O)[C@H](C)NC(=O)[C@H](C)NC(=O)[C@H](CCC(N)=O)NC(=O)[C@H](CC(N)=O)NC1=O)NC(=O)[C@H](CC(C)(C)C)NC(=O)[C@H](CC(=O)O)NC2=O` (stereo partly drawn) [I-1567, Ac-PL3-Asp-Npg-B5-Asn-Gln-Ala-Ala-Phe-Asn-PyrS2-3Thi-BztA-Gln-NH2]: the 50% inhibitory concentration (IC50) is 182 nM in assay [1] and greater than 20000 nM in assay [2].
